Assay results from US20060029674A1, “Stable amorphous Cefdinir” (priority 2004, published 2006).

Experiments:
[1] = material taught in U.S. Pat. No. 4,559,334; cited from earlier work
[2] = Physical stability of the isolated amorphous material; format: physicochemical; settings: isolated by evaporating a methanolic solution
Description: Amorphous Cefdinir was isolated by evaporating a methanolic solution of cefdinir hydrate. […] Stable amorphous Cefdinir with Eudragit EPO was made and isolated by evaporating a methanolic solution. […] Amorphous cefdinir with PVP was made and isolated by evaporating a methanolic solution.

[3] = Glass transition temperature (Tg) by thermally stimulated current spectroscopy; format: physicochemical
Experimental: The glass transition temperature (Tg) determined by thermally stimulated current spectroscopy was 67° C. This value of 67° C. is considerably higher than ambient temperature, and as a rule of thumb high Tg values are desirable for room temperature stability.
The glass transition temperature (Tg) determined by thermally stimulated current spectroscopy was 102° C. […] The higher Tg observed for the cefdinir-EPO sample relative to the individual components further confirms specific interaction.
The glass transition temperature (Tg) determined by thermally stimulated current spectroscopy was 95° C.

| physical stability of the amorphous material [2] | glass transition temperature (Tg) [3] [°C] | Compound | stability of prior-art amorphous material [1] |
| --- | --- | --- | --- |
|  |  | C=CC1=C(C(=O)O)N2C(=O)[C@@H](NC(=O)/C(=N\O)c3csc(N)n3)[C@H]2SC1 [crystalline-like amorphous material] | unstable |
| physically stable | 67 | C=CC1=C(C(=O)O)N2C(=O)C(NC(=O)C(=NO)c3csc(N)n3)[C@H]2SC1 (single isomer, unassigned) [Amorphous Cefdinir, 7-[2-(2-aminothiazol-4-yl)-2-hydroxyiminoacetamido]-3-vinyl-3-cephem-4-carboxylic acid (syn isomer)] |  |
